{
  "source": "patent EP0037667A2",
  "about": "“Immobilized lactase, its preparation and use” (priority 1980, dated 1981)",
  "key": {"[1]": {"molecular_target": "lactase derived from Escherichia coli (β-galactosidase; enzyme number 3. 2. 1. 23) (Escherichia coli, UniProt P00722)", "sequence (P00722 2-1024)": "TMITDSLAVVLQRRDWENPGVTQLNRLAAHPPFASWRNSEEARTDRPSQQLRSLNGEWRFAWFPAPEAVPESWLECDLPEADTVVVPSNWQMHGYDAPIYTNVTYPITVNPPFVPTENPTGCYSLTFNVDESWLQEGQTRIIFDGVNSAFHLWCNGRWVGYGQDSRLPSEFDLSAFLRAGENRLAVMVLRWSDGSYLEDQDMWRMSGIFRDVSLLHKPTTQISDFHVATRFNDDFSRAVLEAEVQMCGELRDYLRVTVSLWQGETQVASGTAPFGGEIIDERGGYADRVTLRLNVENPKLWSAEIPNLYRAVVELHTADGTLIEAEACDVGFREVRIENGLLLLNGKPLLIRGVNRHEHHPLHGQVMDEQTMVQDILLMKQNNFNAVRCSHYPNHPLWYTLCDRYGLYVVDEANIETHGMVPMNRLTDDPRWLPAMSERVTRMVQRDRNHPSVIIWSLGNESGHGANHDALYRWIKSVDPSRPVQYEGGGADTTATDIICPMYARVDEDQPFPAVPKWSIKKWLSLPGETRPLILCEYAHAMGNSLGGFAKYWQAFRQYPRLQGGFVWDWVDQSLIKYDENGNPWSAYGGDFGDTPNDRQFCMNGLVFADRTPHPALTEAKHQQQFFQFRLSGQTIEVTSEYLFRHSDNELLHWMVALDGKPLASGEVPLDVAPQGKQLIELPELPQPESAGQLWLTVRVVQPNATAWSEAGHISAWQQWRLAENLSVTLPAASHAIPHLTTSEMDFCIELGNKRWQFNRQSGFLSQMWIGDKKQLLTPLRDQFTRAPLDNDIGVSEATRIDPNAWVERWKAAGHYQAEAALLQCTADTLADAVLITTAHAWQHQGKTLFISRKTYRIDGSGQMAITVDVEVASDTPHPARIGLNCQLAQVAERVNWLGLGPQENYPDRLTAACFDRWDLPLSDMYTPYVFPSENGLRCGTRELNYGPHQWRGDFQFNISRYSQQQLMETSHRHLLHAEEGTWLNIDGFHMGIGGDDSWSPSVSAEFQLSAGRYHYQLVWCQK", "conditions": "E. coli lactase, cited from earlier work"}, "[2]": {"molecular_target": "T1, lactase originated from Aspergillus oryzae (extracellular enzyme, unimmobilized) (Aspergillus oryzae, UniProt Q2UCU3)", "T1 construct": "obtained from a strain belonging to Aspergillus oryzae as extracellular enzyme; host or cells: Aspergillus oryzae strain (natural producer, secreted)", "T1 sequence (Q2UCU3 19-1005)": "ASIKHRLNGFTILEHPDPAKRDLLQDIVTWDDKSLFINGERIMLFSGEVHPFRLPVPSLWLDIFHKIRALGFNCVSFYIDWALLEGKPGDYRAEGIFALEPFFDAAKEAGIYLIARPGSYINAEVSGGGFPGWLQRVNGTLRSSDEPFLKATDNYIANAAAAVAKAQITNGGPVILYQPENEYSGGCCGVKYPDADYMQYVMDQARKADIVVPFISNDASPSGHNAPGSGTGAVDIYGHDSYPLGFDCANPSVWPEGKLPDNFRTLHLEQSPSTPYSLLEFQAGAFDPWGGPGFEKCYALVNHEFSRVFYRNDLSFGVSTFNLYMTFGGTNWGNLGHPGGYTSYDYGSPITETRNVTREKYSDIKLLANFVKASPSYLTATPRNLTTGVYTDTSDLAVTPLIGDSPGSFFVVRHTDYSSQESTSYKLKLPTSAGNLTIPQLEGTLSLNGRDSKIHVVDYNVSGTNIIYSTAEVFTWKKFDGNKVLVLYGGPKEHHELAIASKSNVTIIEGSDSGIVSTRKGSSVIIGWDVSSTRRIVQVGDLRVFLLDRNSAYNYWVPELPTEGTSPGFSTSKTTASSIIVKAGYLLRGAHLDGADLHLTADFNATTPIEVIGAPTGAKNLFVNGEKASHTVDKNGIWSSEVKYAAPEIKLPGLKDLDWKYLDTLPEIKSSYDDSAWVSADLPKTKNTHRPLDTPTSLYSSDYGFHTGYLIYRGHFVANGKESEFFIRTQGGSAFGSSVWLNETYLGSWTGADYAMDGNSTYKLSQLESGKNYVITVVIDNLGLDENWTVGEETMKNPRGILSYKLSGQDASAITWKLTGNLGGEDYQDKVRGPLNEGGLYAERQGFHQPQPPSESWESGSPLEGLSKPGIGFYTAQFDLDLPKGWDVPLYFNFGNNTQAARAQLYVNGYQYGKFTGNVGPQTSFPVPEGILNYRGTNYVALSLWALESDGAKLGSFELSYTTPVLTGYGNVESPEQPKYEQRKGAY", "test": "Km and Ki of free (unimmobilized) Aspergillus oryzae lactase", "assay_type": "biochemical", "conditions": "for Ki: substrate, lactose, free enzyme, read-out: Inhibition constant Ki by galactose", "procedure": "The lactase used in the present invention is obtained from a strain belonging to Aspergillus oryzae as extracellular enzyme, and has the following characteristics:\nKm = 0.10 ± 0.05 mole/ℓ (pH 4.5, 30°C, substrate; lactose), and Km = 0.3 ± 0.15 mole/ℓ (pH 6.65, 30°C, substrate; lactose).\nKi = (6 ± 3) x 10^-3 mole/ℓ (pH 4.5, 30°C, substrate; lactose), and Ki = (4 ± 3) x 10^-3 mole/ℓ (pH 6.65, 30°C, substrate; lactose).\nIn the present specification, 1 ILU is defined as the amount of lactase which produces […] per minute of glucose at pH 4.5 at 30°C when a 13.3 w/v % of lactose solution is used as the substrate. The quantity of glucose thus prepared is defined by using glucose oxidase-peroxidase- dye system. When the measurement of the activity (unit) is carried out at a different pH or temperature, the pH or the temperature will specifically be given in each case."}, "[3]": {"molecular_target": "T2, immobilized lactase: Aspergillus oryzae lactase covalently attached through glutaraldehyde on macroporous phenol-formaldehyde based anion-exchange resin (Aspergillus oryzae, UniProt Q2UCU3)", "T2 construct": "obtained from a strain belonging to Aspergillus oryzae as extracellular enzyme; host or cells: Aspergillus oryzae strain (natural producer, secreted)", "T2 sequence (Q2UCU3 19-1005)": "as above", "test": "Km and Ki of the immobilized lactase, general properties", "assay_type": "biochemical", "conditions": "pH 6.65, 30°C, substrate; lactose; immobilized enzyme; read-out: Inhibition constant by galactose Ki", "procedure": "The enzymatical properties of the present immobilized lactase are given below.\nKm = 0.2 ± 0.1 mole/ℓ (both pH 4.5, 30°C, substrate; lactose, and pH 6.65, 30°C, substrate; lactose)\nKi = (8 ± 5) x […] mole/ℓ (pH 4.5, 30°C, substrate; lactose) and Ki = (3 ± 2) x 10^-2 mole/ℓ (pH 6.65, 30°C, substrate; lactose).\nBoth values of Km and Ki for the immobilized enzyme tend to increase with increase in the concentration of the glutaraldehyde solution used for the treatment, and moreover, in the measurement thereof, it is considerably difficult to obtain the results with good reproducibility. Therefore, the above value given for Km and Ki should be understood taking this respect into consideration.\""}},
  "note": "Like-named read-outs stand apart in the source and are kept apart here.",
  "data": [
    {"compound": "O=[N+]([O-])c1ccccc1O[C@@H]1O[C@H](CO)[C@H](O)[C@H](O)[C@H]1O", "note": "[ONPG, ortho-nitrophenyl-β-D-galactopyranoside, reference compound]", "values": [
      {"measurement": "Km", "setting": "[1]; read-out: Michaelis constant Km (substrate; ONPG)", "value": 0.95, "unit": "mM"}
    ]},
    {"compound": "OC[C@H]1O[C@@H](O[C@H]2[C@H](O)[C@@H](O)C(O)O[C@@H]2CO)[C@H](O)[C@@H](O)[C@H]1O", "note": "(stereo partly drawn) [lactose]", "values": [
      {"measurement": "Km", "setting": "[2]; pH 4.5, 30°C, dry lactase powder used in Example 3 (Shinnihon Kagaku Kogyo, 80 ILU/mg)", "value": 100, "unit": "mM"},
      {"measurement": "Km", "setting": "[1]; read-out: Michaelis constant Km (substrate; lactose)", "value": 7.5, "unit": "mM"}
    ]},
    {"compound": "OC[C@H]1OC(O)[C@H](O)[C@@H](O)[C@H]1O", "note": "(stereo partly drawn) [galactose]", "values": [
      {"measurement": "Ki", "setting": "[2]; pH 4.5, 30°C", "value": 6, "unit": "mM"},
      {"measurement": "Ki", "setting": "[2]; pH 6.65, 30°C", "value": 4, "unit": "mM"},
      {"measurement": "Ki", "setting": "[3]", "value": 30, "unit": "mM"}
    ]}
  ]
}
